In BigSolDB 2.1:

O=C(Nc1ccccc1)Nc1ccnc(Cl)c1
solubility (mole fraction)
Conditions	278.15 K	283.15 K	288.15 K	293.15 K	298.15 K	303.15 K	308.15 K	313.15 K	318.15 K	323.15 K
in acetone	0.03	0.0317	0.0346	0.0384	0.042	0.0456	0.0488	0.0544	0.0606	0.0672
in ethanol	0.0171	0.0193	0.0218	0.0248	0.0282	0.0325	0.0373	0.043	0.0495	0.0563
in methanol	0.0119	0.0135	0.0155	0.0183	0.0219	0.0257	0.0305	0.0366	0.0447	0.0541
in n-propanol	0.0171	0.0198	0.0221	0.0257	0.0295	0.034	0.0385	0.0453	0.0515	0.0582
